According to patent publication US10597388B2, “Pyridazinone herbicides” (FMC CORPORATION, priority 2014, dated 2020):

What was measured:
Assay type in all cases: in vivo
[1] = tested on: nutsedge, yellow (yellow nutsedge, Cyperus esculentus); experiment: Test C greenhouse herbicide test, pre- and postemergence
Procedure, shortened: (§1)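 Greenhouse pots; pre-em on seeded loam:sand blend, post-em on 2–18 cm plants (1–4 leaf) in sphagnum peat/vermiculite medium. Formulation: non-phytotoxic solvent + surfactant. Read-out: visual % control (0–100) vs controls at 13–15 d.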

[2] = tested on: velvetleaf (Abutilon theophrasti); experiment: as above
Procedure, shortened: as §1

[3] = tested on: foxtail, giant (giant foxtail, Setaria faberii); experiment: as above
Procedure, shortened: as §1

[4] = tested on: crabgrass, large (large crabgrass, Digitaria sanguinalis); experiment: as above
Procedure, shortened: as §1

[5] = tested on: galium (catchweed bedstraw, Galium aparine); experiment: as above
Procedure, shortened: as §1

[6] = tested on: barnyardgrass (Echinochloa crus-galli); experiment: as above
Procedure, shortened: as §1

[7] = tested on: wheat (winter wheat, Triticum aestivum); experiment: as above
Procedure, shortened: as §1

soybean (Glycine max) = experiment: as above
Procedure, shortened: as §1

[8] = tested on: blackgrass (Alopecurus myosuroides); experiment: as above
Procedure, shortened: as §1

[9] = tested on: johnsongrass (Sorghum halepense); experiment: as above
Procedure, shortened: as §1

[10] = tested on: ryegrass, Italian (Italian ryegrass, Lolium multiflorum); experiment: as above
Procedure, shortened: as §1

corn (Zea mays) = experiment: as above
Procedure, shortened: as §1

[11] = tested on: waterhemp_RES2 (ALS & HPPD resistant common waterhemp, Amaranthus rudis); experiment: Test E greenhouse herbicide test, postemergence
Procedure, shortened: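 Visual injury scored 0 (no effect) to 100 (complete control) versus untreated plants, 14 to 21 d after treatment in the greenhouse. Plants were treated postemergence at 1- to 4-leaf stage, 2–18 cm height, in peat-moss/vermiculite medium.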

[12] = Postemergence, 31 g ai/ha, 0 to 100 scale (0 no effect, 100 complete control)
[13] = Postemergence, 125 g ai/ha, scale 0 to 100, 0 is no effect, 100 is complete control
[14] = Postemergence, 250 g ai/ha, scale 0 to 100, 0 no effect, 100 complete control, 13 to 15 d
[15] = Preemergence, 31 g ai/ha, scale 0 to 100, 0 is no effect, 100 is complete control
[16] = Preemergence, 62 g ai/ha, scale 0 to 100, 0 is no effect, 100 is complete control
[17] = Preemergence, 125 g ai/ha, scale 0 to 100, 0 is no effect, 100 is complete control
[18] = Preemergence, 250 g ai/ha, scale 0 to 100, 0 no effect, 100 complete control
[19] = postemergence, 62 g ai/ha, scale 0 to 100, 0 no effect, 100 complete control

## Cc1cc2ccccc2c(-c2c(O)c(C)nn(C)c2=O)c1C [Compound 34]
[1]; [12]
  Nutsedge, Yellow plant response rating: 45
[1]; [13]
  Plant response rating, Nutsedge, Yellow: 85
[1]; [14]
  Plant response rating, Nutsedge, Yellow: 85
[1]; [15]
  Plant response rating, Nutsedge, Yellow: 25
[1]; [16]
  Plant response rating, Nutsedge, Yellow: 25
[1]; [17]
  Plant response rating, Nutsedge, Yellow: 35
[1]; [18]
  Nutsedge, Yellow plant response rating: 65
[1]; [19]
  Nutsedge, Yellow plant response rating: 60
[2]; [12]
  Velvetleaf plant response rating: 50
[2]; [13]
  Plant response rating, Velvetleaf: 100
[2]; [14]
  Plant response rating, Velvetleaf: 90
[2]; [16]
  Plant response rating, Velvetleaf: 80
[2]; [17]
  Plant response rating, Velvetleaf: 85
[2]; [18]
  Velvetleaf plant response rating: 98
[2]; [19]
  Velvetleaf plant response rating: 80
[3]; [12]
  Foxtail, Giant plant response rating: 10
[3]; [13]
  Plant response rating, Foxtail, Giant: 25
[3]; [14]
  Plant response rating, Foxtail, Giant: 35
[3]; [15]
  Plant response rating, Foxtail, Giant: 0
[3]; [16]
  Plant response rating, Foxtail, Giant: 65
[3]; [17]
  Plant response rating, Foxtail, Giant: 75
[3]; [18]
  Foxtail, Giant plant response rating: 70
[3]; [19]
  Foxtail, Giant plant response rating: 20
[4]; [12]
  Crabgrass, Large plant response rating: 5
[4]; [13]
  Plant response rating, Crabgrass, Large: 20
[4]; [14]
  Plant response rating, Crabgrass, Large: 25
[4]; [15]
  Plant response rating, Crabgrass, Large: 0
[4]; [16]
  Plant response rating, Crabgrass, Large: 10
[4]; [17]
  Plant response rating, Crabgrass, Large: 25
[4]; [18]
  Crabgrass, Large plant response rating: 30
[4]; [19]
  Crabgrass, Large plant response rating: 10
[5]; [12]
  Galium plant response rating: 90
[5]; [13]
  Plant response rating, Galium: 95
[5]; [14]
  Plant response rating, Galium: 95
[5]; [15]
  Plant response rating, Galium: 95
[5]; [16]
  Plant response rating, Galium: 95
[5]; [17]
  Plant response rating, Galium: 90
[5]; [18]
  Galium plant response rating: 100
[5]; [19]
  Galium plant response rating: 95
[6]; [12]
  Barnyardgrass plant response rating: 20
[6]; [13]
  Plant response rating, Barnyardgrass: 35
[6]; [14]
  Plant response rating, Barnyardgrass: 35
[6]; [15]
  Plant response rating, Barnyardgrass: 60
[6]; [16]
  Plant response rating, Barnyardgrass: 55
[6]; [17]
  Plant response rating, Barnyardgrass: 65
[6]; [18]
  Barnyardgrass plant response rating: 75
[6]; [19]
  Barnyardgrass plant response rating: 25
[7]; [12]
  Wheat plant response rating: 5
[7]; [13]
  Plant response rating, Wheat: 10
[7]; [14]
  Plant response rating, Wheat: 0
[7]; [16]
  Plant response rating, Wheat: 0
[7]; [17]
  Plant response rating, Wheat: 5
[7]; [18]
  Wheat plant response rating: 25
[7]; [19]
  Wheat plant response rating: 5
Soybean (Glycine max); [12]
  Soybean plant response rating: 5
Soybean (Glycine max); [13]
  Plant response rating, Soybean: 15
Soybean (Glycine max); [14]
  Plant response rating, Soybean: 5
Soybean (Glycine max); [16]
  Plant response rating, Soybean: 10
Soybean (Glycine max); [17]
  Plant response rating, Soybean: 0
Soybean (Glycine max); [18]
  Soybean plant response rating: 5
Soybean (Glycine max); [19]
  Soybean plant response rating: 5
[8]; [12]
  Blackgrass plant response rating: 10
[8]; [13]
  Plant response rating, Blackgrass: 35
[8]; [14]
  Plant response rating, Blackgrass: 60
[8]; [15]
  Plant response rating, Blackgrass: 5
[8]; [16]
  Plant response rating, Blackgrass: 50
[8]; [17]
  Plant response rating, Blackgrass: 85
[8]; [18]
  Blackgrass plant response rating: 90
[8]; [19]
  Blackgrass plant response rating: 10
[9]; [12]
  Johnsongrass plant response rating: 5
[9]; [13]
  Plant response rating, Johnsongrass: 5
[9]; [14]
  Plant response rating, Johnsongrass: 5
[9]; [15]
  Plant response rating, Johnsongrass: 0
[9]; [16]
  Plant response rating, Johnsongrass: 0
[9]; [17]
  Plant response rating, Johnsongrass: 0
[9]; [18]
  Johnsongrass plant response rating: 20
[9]; [19]
  Johnsongrass plant response rating: 5
[10]; [12]
  Ryegrass, Italian plant response rating: 80
[10]; [13]
  Plant response rating, Ryegrass, Italian: 90
[10]; [14]
  Plant response rating, Ryegrass, Italian: 90
[10]; [15]
  Plant response rating, Ryegrass, Italian: 45
[10]; [16]
  Plant response rating, Ryegrass, Italian: 85
[10]; [17]
  Plant response rating, Ryegrass, Italian: 85
[10]; [18]
  Ryegrass, Italian plant response rating: 95
[10]; [19]
  Ryegrass, Italian plant response rating: 80
Corn (Zea mays); [12]
  Corn plant response rating: 0
Corn (Zea mays); [13]
  Plant response rating, Corn: 5
Corn (Zea mays); [14]
  Plant response rating, Corn: 5
Corn (Zea mays); [15]
  Plant response rating, Corn: 0
Corn (Zea mays); [16]
  Plant response rating, Corn: 0
Corn (Zea mays); [17]
  Plant response rating, Corn: 10
Corn (Zea mays); [18]
  Corn plant response rating: 0
Corn (Zea mays); [19]
  Corn plant response rating: 5
[11]; 31 g ai/ha, visual, scale 0 no effect to 100 complete control
  Plant response rating, Waterhemp_RES2: 40
[11]; 62 g ai/ha, scale 0 to 100 (0 no effect, 100 complete control)
  Plant response rating, Waterhemp_RES2: 80
[11]; 250 g ai/ha, scale 0 to 100 (0 no effect, 100 complete control)
  Plant response rating, Waterhemp_RES2: 70
